Reference: patent US20060004086A1, “Method of reducing Abeta42 and treating diseases” (Mayo Foundation for Medical Education and Research, priority 2000, published 2006)
Like-named read-outs stand apart in the source and are kept apart here.

Columns and labels:
[1] = tested on: brain Aβ42 levels in Tg2576 mice; assay: Acute oral dosing of three-month-old Tg2576 mice, brain Aβ ELISA; assay type: in vivo, mouse; conditions: three-month old Tg2576 mice; 100 mg/kg/day orally for three days; compared with vehicle
Method: NSAIDs were dissolved in an appropriate vehicle. Dimethyl sulfoxide (DMSO), ethanol, and ethyl acetate are some examples. The NSAID solution was mixed with Kool-Aid and administered orally using a medicine dropper. […] At two hours after the final doses were administered, animals were sacrificed, and SDS soluble Aβ40 and Aβ42 were analyzed using ELISA.
Three month old mice have high levels of soluble Aβ in the brain but no Aβ deposition (see Hsiao et al. (1996) Science 274:99-102). […] Brain levels of SDS-soluble Aβ40 and Aβ42 were measured using ELISA.
Compounds were administered orally.

[2] = tested on: Aβ42 secretion; assay: Primary in vitro screen, CHO-APP695NL,I,his cells, end-specific Aβ40 and Aβ42 ELISAs; assay type: cell-based, Chinese hamster; conditions: for activity at 100 µM / activity at 10 µM: Cricetulus griseus, 6 h; for selective reduction of Aβ42 levels in the primary screen: 10 μM or 100 μM, classification on a 20% change
Method: Aβ40 and Aβ42 levels in culture supernatants were determined for each time points using ELISA.
In a primary screen, the effects of NSAIDs on Aβ42 secretion by a CHO cell line that expressed APP(CHO-APP695NL,I,his) were examined. Duplicate cell cultures were treated with (a) a vehicle, (b) 10 μM of NSAID, or (c) 100 μM of NSAID.
To determine Aβ40 and Aβ42 levels, six-hour culture supernatants taken from cells grown in a single well of a twenty-four-well plate were used in end-specific Aβ40 and Aβ42 ELISAs (Suzuki, et al. (1994) Sci 264:[…]). Aβ40 and Aβ42 levels of cultures treated with NSAID were compared with those of cultures treated with the vehicle alone. […] NSAIDs that caused either selective reduction of Aβ42 levels or reduction in both Aβ40 and Aβ42 levels are subjected to a secondary screen.

[3] = plasma concentration of the drug; cited from earlier work
[4] = 100 μM, six-hour culture supernatants, read-out: % Control % Aβ42
[5] = 100 μM, six-hour culture supernatants, read-out: % Control Aβ40
[6] = 100 μM, six-hour culture supernatants, read-out: % Control Aβ42
[7] = six-hour culture supernatants, read-out: % Control % Aβ42
[8] = six-hour culture supernatants, read-out: % Control Aβ40
[9] = six-hour culture supernatants, read-out: % Control Aβ42
[10] = 100 μM, six-hour culture supernatants

SMILES	activity at 100 µM [2, 4]	activity at 100 µM [2, 5]	activity at 100 µM [2, 6]	other results
CC(C(=O)O)c1ccc(-c2ccccc2)c(F)c1 (stereo not shown) [Flurbiprofen, flurbiprofen]				brain Aβ42 levels [1]: lower Aβ42 levels; activity at 100 µM ([2]; read-out: % Control % Aβ42): 80%; activity at 100 µM ([2]; read-out: % Control Aβ40): 93%; activity at 100 µM ([2]; read-out: % Control Aβ42): 70%
Cc1c(Cl)cccc1Nc1ccccc1C(=O)O [Tolfenamic Acid, tolfenamic acid]	110%	84%	95%	selective reduction of Aβ42 levels in the primary screen [2]: did not
O=C(O)c1cc([N+](=O)[O-])ccc1NCCCc1ccccc1 [NPPB, 5-nitro-2-(3-phenylpropylamino)benzoic acid]				activity at 10 µM [2, 7]: 66%; activity at 10 µM [2, 8]: 81%; activity at 10 µM [2, 9]: 48%
Cc1cnc(NC(=O)C2=C(O)c3ccccc3S(=O)(=O)N2C)s1 [Meloxicam]				activity at 10 µM [2, 7]: 158%; activity at 10 µM [2, 8]: 64%; activity at 10 µM [2, 9]: 122%; Plasma [3]: 15 µM
Cc1cc(NC(=O)C2=C(O)c3ccccc3S(=O)(=O)N2C)no1 [Isoixicam]				% Control % Aβ42 [2, 10]: 103%; % Control Aβ40 [2, 10]: 109%; % Control Aβ42 [2, 10]: 112%
COc1ccc2cc(CCC(C)=O)ccc2c1 [Nabumetone]	70%	157%	103%	
Cc1ccc(C(C)C)cc2c(C)ccc1-2 [Guaiazulene]	156%	70%	124%	
O=C(O)c1ccccc1Nc1cccc(C(F)(F)F)c1 [Flufenamic Acid, flufenamic acid]				selective reduction of Aβ42 levels in the primary screen [2]: selectively reduced Aβ42 levels; activity at 10 µM [2, 7]: 70%; activity at 10 µM [2, 8]: 99%; activity at 10 µM [2, 9]: 64%
COc1ccc2c(c1)c(CC(=O)OCC(=O)O)c(C)n2C(=O)c1ccc(Cl)cc1 [Acemetacin]	93%	110%	101%	
CC(C(=O)O)c1ccc2c(c1)[nH]c1ccc(Cl)cc12 (stereo not shown) [Carprofen]	86%	58%	48%	
CC(C(=O)O)c1ccc(N2Cc3ccccc3C2=O)cc1 (stereo not shown) [Indoprofen]	107%	116%	126%	
CC(C(=O)O)c1cccc(C(=O)c2ccccc2)c1 (stereo not shown) [Ketoprofen]	117%	88%	107%	
CCc1cccc2c3c([nH]c12)C(CC)(CC(=O)O)OCC3 (stereo not shown) [Etodolac]	120%	85%	109%	
O=C(c1ccccc1)c1ccc2n1CCC2C(=O)O (stereo not shown) [Ketorlolac]				activity at 10 µM [2, 7]: 142%; activity at 10 µM [2, 8]: 84%; activity at 10 µM [2, 9]: 131%
CN1C(C(=O)Nc2ccccn2)=C(O)c2ccccc2S1(=O)=O [Piroxicam]	75%	142%	101%	
CN(C)CCCOc1nn(Cc2ccccc2)c2ccccc12 [Benzydamine]	132%	90%	128%	
